Reference: patent US20050282814A1, “Vasculostatic agents and methods of use thereof” (TargeGen, Inc., priority 2002, published 2005)
Counter-ions that a name gives are not always drawn.

Experiments:
[1] = tested on: acute myocardial infarct; experiment: Rat acute myocardial infarct model (60 min LAD occlusion, reperfusion); assay type: in vivo, Sprague-Dawley rats; conditions: 1.0 mg/kg IV at 90 min post-reperfusion; 24 hr; vs vehicle
Experimental: A rodent model of acute myocardial infarct, in which the proximal left anterior descending coronary artery (LAD) is occluded for 60 min followed by reperfusion, was used to determine whether test agents reduced infarct size at 24 hours.
Myocardial infarcts were created in Sprague-Dawley rats (200-300 g body weight) by a 60 min occlusion of the LAD followed by LAD reperfusion. At 90 min post-reperfusion, either vehicle alone or test agents were injected IV. At 24 hr post-treatment, the ischemic zone (area at-risk, AAR) was delineated by re-ligation of the LAD followed by IV injection of alkali blue dye, after which hearts were sectioned along the short axis and stained using triphenyltetrazolium chloride to delineate viable from infarcted myocardium. Photographic images were then analyzed using morphometric software to calculate infarct area as a percent of the at-risk area.
The following studies were performed as described above, except that the timing of 3-[2,4-diamino-6-(3-hydroxyphenyl)pteridin-7-yl] phenol dihydrochloride salt administration (at 0.1 mg/kg) was varied. In one group, 3-[2,4-diamino-6-(3-hydroxyphenyl)pteridin-7-yl] phenol dihydrochloride salt was administered at both 60 and 240 min post-occlusion.
In a porcine MI model (90 min of LAD occlusion followed by complete reperfusion), a single 0.3 mg/kg IV bolus delivered 30 min post-reperfusion reduced infarct size by […] vs. controls (40% vs. 56%, N=12-13, P=0.03).

[2] = molecular target: T1, recombinant human c-Src (Homo sapiens, UniProt P12931); experiment: c-Src kinase inhibition, KinaseGlo residual ATP; assay type: biochemical; conditions: ATP 3 μM, 90 minutes at room temperature
T1 construct: purchased Panvera, Madison Wis
Excerpt: (§1) The ability of compounds to inhibit the activity of two Src-family kinases (c-Src and Yes) was directly tested.

[3] = molecular target: T2, recombinant human Yes (Homo sapiens, UniProt P07947); experiment: Yes kinase inhibition, KinaseGlo residual ATP; assay type: biochemical; conditions: ATP 3 μM, 90 minutes at room temperature
T2 construct: purchased Panvera, Madison Wis
Excerpt: as §1

[4] = molecular target: T3, human p120γ subunit of PI3K (Homo sapiens, UniProt P48736); experiment: PI3K p120γ enzymatic activity at two concentrations (Upstate Group); assay type: biochemical; conditions: 100% = no inhibition, 0% = complete inhibition; for remaining activity at 0.5 µM: read-out: Percent Control Value at 0.5 μM; for remaining activity at 5 µM: read-out: Percent Control Value at 5 μM
T3 construct: Upstate Group, Charlottesville, Va; (ran the assay under contract)
Experimental: The ability of compounds to inhibit the activity of PI3K kinase was determined using biochemical assays. In a first assay, compounds were tested at two concentrations (0.5 and 5 μM) for their ability to inhibit enzymatic activity of the human p120γ subunit of PI3K (the assay being performed under contract by Upstate Group, Charlottesville, Va.).

[5] = molecular target: recombinant phosphatidylinositol 3-kinase-p120γ (PI3K) (Homo sapiens, UniProt P48736); experiment: biochemical
[6] = tested on: VEGF-induced edema; experiment: Miles assay, VEGF-induced edema; assay type: in vivo, Sprague-Dawley rats; conditions: VEGF 200 ng/site, 45 min, vehicle 12
Experimental: A rodent model of vascular edema, the Miles assay, was used to screen compounds for their ability to inhibit VEGF-induced edema.
Sprague-Dawley rats were first injected IV with vehicle alone or test agent, followed by IV injection of Evans blue dye, followed by intradermal injections of saline and VEGF (200 ng/injection site) along both shaved flanks. After 45 min, intradermal injection sites were photographed and then scored by a blinded observer for extravasation of Evans blue dye into the dermis (dermal bluing) according to a 4 point scoring system (3=maximal bluing, ≧75% of response in vehicle-treated animals; 2=medium bluing, >25% but <75% of vehicle-treated animals; 1=minimal bluing, ≦25% of vehicle-treated animals; 0=bluing equivalent to saline injection sites on same animal). Individual scores for 4 injection sites (from 2 separate animals) were summed and are shown as a scale of 0-12, with a lower score indicating the greater anti-edema activity; note that all vehicle-treated groups score a value of 12, based on the scoring system outlined above.

[7] = tested on: cerebral stroke; experiment: Cerebral stroke model, permanent middle cerebral artery occlusion; assay type: in vivo, mice; conditions: 1 mg/kg BW IV 60 min after ligation, 24 hours; for % Infarct reduction: vs vehicle
Experimental: A rodent model of cerebral stroke, in which the middle cerebral artery is permanently occluded, was used to determine whether test agents reduced infarct size at 24 hours.
Cerebral strokes were created in mice by permanent ligation of the middle cerebral artery using a cauterizing tool, followed 60 min later by IV injection of either vehicle alone (50% PEG400 in water) or test agents (at 1 mg/kg BW). Twenty four hours later, brains were sectioned and stained using triphenyltetrazolium chloride to delineate viable from infarcted tissue. Photographic images were then analyzed using morphometric software to calculate infarct area.

T2 sequence (P07947 whole entry): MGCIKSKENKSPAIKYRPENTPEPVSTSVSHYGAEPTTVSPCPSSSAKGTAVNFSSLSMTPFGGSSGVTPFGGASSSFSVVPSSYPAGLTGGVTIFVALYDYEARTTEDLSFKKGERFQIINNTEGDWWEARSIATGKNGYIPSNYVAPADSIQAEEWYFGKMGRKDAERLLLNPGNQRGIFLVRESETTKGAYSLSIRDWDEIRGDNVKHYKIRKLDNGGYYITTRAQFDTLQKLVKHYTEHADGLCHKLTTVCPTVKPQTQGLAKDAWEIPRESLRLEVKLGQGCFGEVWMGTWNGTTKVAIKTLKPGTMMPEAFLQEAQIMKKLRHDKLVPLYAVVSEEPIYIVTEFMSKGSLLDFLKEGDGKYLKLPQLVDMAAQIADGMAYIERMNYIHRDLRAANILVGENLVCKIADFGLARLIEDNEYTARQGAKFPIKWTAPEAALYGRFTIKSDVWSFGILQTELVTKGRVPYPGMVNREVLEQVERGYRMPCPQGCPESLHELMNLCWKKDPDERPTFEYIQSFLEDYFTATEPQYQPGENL
T1 sequence (P12931 whole entry): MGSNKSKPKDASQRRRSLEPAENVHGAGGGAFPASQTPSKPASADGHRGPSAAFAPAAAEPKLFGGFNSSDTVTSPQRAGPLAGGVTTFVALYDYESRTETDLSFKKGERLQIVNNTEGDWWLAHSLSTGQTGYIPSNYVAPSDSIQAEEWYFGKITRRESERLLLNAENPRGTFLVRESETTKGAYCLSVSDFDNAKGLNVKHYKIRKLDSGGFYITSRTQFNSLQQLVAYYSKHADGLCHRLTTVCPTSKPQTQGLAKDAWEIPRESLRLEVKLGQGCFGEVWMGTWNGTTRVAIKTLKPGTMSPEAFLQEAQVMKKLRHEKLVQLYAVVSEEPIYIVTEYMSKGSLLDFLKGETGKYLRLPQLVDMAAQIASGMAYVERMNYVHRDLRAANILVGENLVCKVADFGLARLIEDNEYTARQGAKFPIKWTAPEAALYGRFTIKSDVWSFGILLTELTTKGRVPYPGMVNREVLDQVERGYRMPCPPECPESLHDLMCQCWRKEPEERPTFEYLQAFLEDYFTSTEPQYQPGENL
T3 sequence (P48736 whole entry): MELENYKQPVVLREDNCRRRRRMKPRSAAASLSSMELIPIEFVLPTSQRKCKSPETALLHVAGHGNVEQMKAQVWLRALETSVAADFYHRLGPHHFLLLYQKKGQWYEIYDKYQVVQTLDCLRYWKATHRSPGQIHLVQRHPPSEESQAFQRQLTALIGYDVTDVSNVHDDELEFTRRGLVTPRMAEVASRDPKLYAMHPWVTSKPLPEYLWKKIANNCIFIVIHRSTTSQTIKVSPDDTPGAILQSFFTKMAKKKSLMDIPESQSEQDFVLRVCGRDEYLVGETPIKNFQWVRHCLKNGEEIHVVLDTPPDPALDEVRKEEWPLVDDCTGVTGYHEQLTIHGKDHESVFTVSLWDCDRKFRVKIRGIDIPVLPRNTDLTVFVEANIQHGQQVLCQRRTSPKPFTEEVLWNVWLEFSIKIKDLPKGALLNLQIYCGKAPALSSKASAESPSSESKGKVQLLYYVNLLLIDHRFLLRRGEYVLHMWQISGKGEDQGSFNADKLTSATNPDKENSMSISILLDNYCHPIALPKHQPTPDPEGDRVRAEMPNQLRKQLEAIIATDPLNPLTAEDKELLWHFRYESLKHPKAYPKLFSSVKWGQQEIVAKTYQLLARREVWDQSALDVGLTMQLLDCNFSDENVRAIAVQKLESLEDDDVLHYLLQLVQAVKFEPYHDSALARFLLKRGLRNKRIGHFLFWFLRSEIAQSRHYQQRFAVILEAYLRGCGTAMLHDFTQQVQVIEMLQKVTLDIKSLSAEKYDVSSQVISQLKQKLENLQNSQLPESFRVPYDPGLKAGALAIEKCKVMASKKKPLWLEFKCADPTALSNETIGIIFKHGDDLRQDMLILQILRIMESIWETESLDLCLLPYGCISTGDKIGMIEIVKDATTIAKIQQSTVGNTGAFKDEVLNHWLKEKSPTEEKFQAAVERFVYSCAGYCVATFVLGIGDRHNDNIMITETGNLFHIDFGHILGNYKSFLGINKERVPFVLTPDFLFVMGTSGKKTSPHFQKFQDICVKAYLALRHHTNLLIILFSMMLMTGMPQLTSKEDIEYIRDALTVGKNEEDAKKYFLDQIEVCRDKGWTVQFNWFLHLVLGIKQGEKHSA
Chain of recombinant phosphatidylinositol 3-kinase-p120γ (PI3K) (P48736 whole entry): as above

Cl.Cl.Nc1nc(N)c2nc(-c3cccc(O)c3)c(-c3cccc(O)c3)nc2n1
% Infarct reduction [1]: Not significant

Oc1ccc(CNc2ncnc3ncc(-c4ccccc4)nc23)cc1O
IC50 [2]: 420 nM

Nc1cncc2nc(-c3ccc(O)c(O)c3)c(-c3ccc(O)c(O)c3)nc12 [2,3-Bis(3,4-dihydroxyphenyl)-pyrido[3,4-b]pyrazin-8-ylamine hydrochloride salt]
IC50 [2]: 1600 nM | IC50 [3]: 1000 nM

Nc1cncc2nc(-c3cccc(O)c3)c(-c3cccc(O)c3)nc12 [2,3-Bis(3-hydroxyphenyl)-pyrido[3,4-b]pyrazin-8-ylamine hydrochloride salt]
remaining activity at 0.5 µM [4]: 101% | remaining activity at 5 µM [4]: 90%

Nc1cncc2nc(-c3ccc(O)cc3)c(-c3ccc(O)cc3)nc12 [2,3-Bis(4-hydroxyphenyl)-pyrido[3,4-b]pyrazin-8-ylamine]
remaining activity at 0.5 µM [4]: 101% | remaining activity at 5 µM [4]: 94%

Nc1nc(O)c2nc(-c3cccc(O)c3)c(-c3cccc(O)c3)nc2n1 [2-Amino-6,7-bis-(3-hydroxy-phenyl)-pteridin-4-ol]
remaining activity at 0.5 µM [4]: 102% | remaining activity at 5 µM [4]: 99% | IC50 [5]: 48000 nM

O=C(Nc1ccccc1-c1cc2ccccc2[nH]1)c1ccc(O)c(O)c1 [3,4-Dihydroxy-N-(2-(1H-indol-2-yl)-phenyl)-benzamide]
IC50 [2]: 337 nM | IC50 [3]: 303 nM

Nc1nnc2cc(-c3cccc(O)c3)ccc2n1 [3-(3-Amino-benzo[1,2,4]triazin-7-yl)-phenol]
IC50 [2]: 12000 nM | IC50 [3]: 6800 nM

O=C(Nc1ccccc1-c1cc2ccccc2[nH]1)c1cccnc1C(=O)O [3-[2-(1H-Indol-2-yl)-phenyicarbamoyl]-pyridine-2-carboxylic acid]
Score (scale of 0-12) ([6]; 0.5 mg/kg IV): 5

Oc1ccc(CCNc2ncnc3ncc(-c4ccccc4)nc23)cc1O [4-[2-(6-Phenyl-pteridin-4-ylamino)-ethyl]benzene-1,2-diol]
IC50 [2]: 317 nM

Cl.Nc1ncnc2nc(-c3ccc(O)c(O)c3)c(-c3ccc(O)c(O)c3)nc12 [4-[4-amino-6-(3,4-dihydroxyphenyl)pteridin-7-yl]benzene-1,2-diol hydrochloride salt]
IC50 [2]: 1300 nM | Score (scale of 0-12) ([6]; 0.01 mg/kg IV): 6 | Score (scale of 0-12) ([6]; 0.1 mg/kg IV): 3 | Score (scale of 0-12) ([6]; 1 mg/kg IV): 5

Nc1ncnc2nc(-c3ccc(O)c(O)c3)c(-c3ccc(O)c(O)c3)nc12 [4-[4-amino-6-(3,4-dihydroxyphenyl)pteridin-7-yl]benzene-1,2-diol methanesulfonate salt]
IC50 [2]: 800 nM

Nc1ncnc2nc(-c3ccc(O)c(O)c3)c(-c3ccc(O)c(O)c3)nc12 [4-[4-amino-6-(3,4-dihydroxyphenyl)pteridin-7-yl]benzene-1,2-diol]
IC50 [5]: 968 nM

Nc1ncnc2nc(-c3cccc(O)c3)c(-c3cccc(O)c3)nc12 [6,7-Bis(3-hydroxyphenyl)-pteridine-4-ylamine hydrobromide salt]
IC50 [2]: 8800 nM

Nc1nc(N)c2nc(-c3ccc(O)cc3)c(-c3ccc(O)cc3)nc2n1 [6,7-Bis(4-hydroxyphenyl)-pteridine-2,4-diamine]
remaining activity at 0.5 µM [4]: 94% | remaining activity at 5 µM [4]: 46%

Nc1ncnc2nc(-c3ccccn3)c(-c3ccccn3)nc12 [6,7-Di-pyridin-2-yl-pteridin-4-ylamine]
% Infarct reduction [7]: Not significant

Nc1nc(N)c2nc(-c3ccc(O)c(O)c3)c(-c3ccc(O)c(O)c3)nc2n1 [6,7-bis(3,4-dihydroxyphenyl)-pteridine-2,4-diamine dihydrochloride salt]
IC50 [2]: 2600 nM | IC50 [3]: 1100 nM

Nc1nc(N)c2nc(-c3ccc(O)c(O)c3)c(-c3ccc(O)c(O)c3)nc2n1 [6,7-bis(3,4-dihydroxyphenyl)-pteridine-2,4-diamine]
remaining activity at 0.5 µM [4]: 66% | remaining activity at 5 µM [4]: 12% | IC50 [5]: 273 nM

Oc1nc(O)c2nc(-c3ccc(O)c(O)c3)c(-c3ccc(O)c(O)c3)nc2n1 [6,7-bis(3,4-dihydroxyphenyl)pteridine-2,4-diol]
IC50 [2]: 1800 nM | IC50 [3]: 900 nM

Nc1ncnc2nc(-c3cccc(O)c3)c(-c3cccc(O)c3)nc12 [6,7-bis(3-hydroxyphenyl)-pteridin-4-ylamine hydrochloride salt]
IC50 [2]: 10000 nM | IC50 [3]: 6300 nM

Nc1ncnc2nc(-c3cccc(O)c3)c(-c3cccc(O)c3)nc12 [6,7-bis(3-hydroxyphenyl)-pteridin-4-ylamine]
remaining activity at 0.5 µM [4]: 97% | remaining activity at 5 µM [4]: 71% | IC50 [5]: 3900 nM

Nc1ncc2nc(-c3cccc(O)c3)c(-c3cccc(O)c3)nc2n1 [6,7-bis(3-hydroxyphenyl)-pteridine-2-amine]
IC50 [2]: 27600 nM | IC50 [3]: 3800 nM

Nc1ncnc2nc(-c3ccc(O)cc3)c(-c3ccc(O)cc3)nc12 [6,7-bis(4-hydroxyphenyl)-pteridin-4-ylamine]
remaining activity at 0.5 µM [4]: 102% | remaining activity at 5 µM [4]: 85%

Nc1nc(N)c2nc(CNCc3ccc4ccccc4c3)cnc2n1 [6-{[(Naphthalen-2-ylmethyl)-amino]-methyl-pteridine-2,4-diamine]
Score (scale of 0-12) ([6]; 0.1 mg/kg IV): 4

Nc1nnc2cc(-c3ccccc3C(F)(F)F)ccc2n1 [7-(2-Trifluoromethyl-phenyl)-benzo[1,2,4]triazin-3-ylamine]
IC50 [2]: 9200 nM | IC50 [3]: 7000 nM

Nc1nnc2cc(-c3cccc4ccccc34)ccc2n1 [7-Naphthalen-1-yl-benzo[1,2,4]triazin-3-ylamine]
IC50 [2]: 900 nM | IC50 [3]: 9300 nM

Cc1ccc(-c2nn(C(C)(C)C)c3ncnc(N)c23)cc1 [PP1, reference compound]
Infarct area in mm^3 (mean ± SEM) [7]: 35.4 ± 6.4 mm^3 | % Infarct reduction [7]: Not significant

CN(C)S(=O)(=O)c1ccc2c(c1)/C(=C/c1cc3c([nH]1)CCCC3)C(=O)N2 [SU6656, reference compound]
% Infarct reduction [7]: Not significant

Cc1cccc(C)c1-c1cc(C)c2nc(Nc3ccccc3)nnc2c1 [[7-(2,6-Dimethyl-phenyl)-5-methyl-benzo[1,2,4]triazin-3-yl]-phenyl-amine]
IC50 [2]: 294 nM

Nc1nc(N)c2nc(-c3ccccc3)c(-c3ccccc3)nc2n1 [compound B, 6,7-diphenyl-pteridine-2,4-diamine]
remaining activity at 0.5 µM [4]: 101% | remaining activity at 5 µM [4]: 81%

Nc1ccc2nc(-c3ccc(O)c(O)c3)c(-c3ccc(O)c(O)c3)nc2n1 [compound C, 2,3-Bis(3,4-dihydroxyphenyl)-pyrido[2,3-b]pyrazin-6-ylamine dihydrochloride salt]
IC50 [2]: 1300 nM | IC50 [3]: 756 nM
